# Columns and labels:
# [1] = biological target: T1, ASK1 (MAP3K5) (Homo sapiens, UniProt Q99683); test: Quantitative competitive binding assay (KINOMEscan); settings: for IC50: estimated Kd, averaged pointwise estimates, transformed Hill equation, read-out: Calculated estimate of IC50; for remaining binding at 0.05 µM: read-out: Percent control (50 nM); for remaining binding at 0.2 µM: read-out: Percent control (200 nM); for remaining binding at 1 µM: read-out: Percent control (1000 nM); for remaining binding at 10 µM: read-out: Percent control (10 μM)
# T1 construct: purchased KINOMEscan (DiscoveRx), San Diego, CA
# T1 sequence (Q99683 1-1374): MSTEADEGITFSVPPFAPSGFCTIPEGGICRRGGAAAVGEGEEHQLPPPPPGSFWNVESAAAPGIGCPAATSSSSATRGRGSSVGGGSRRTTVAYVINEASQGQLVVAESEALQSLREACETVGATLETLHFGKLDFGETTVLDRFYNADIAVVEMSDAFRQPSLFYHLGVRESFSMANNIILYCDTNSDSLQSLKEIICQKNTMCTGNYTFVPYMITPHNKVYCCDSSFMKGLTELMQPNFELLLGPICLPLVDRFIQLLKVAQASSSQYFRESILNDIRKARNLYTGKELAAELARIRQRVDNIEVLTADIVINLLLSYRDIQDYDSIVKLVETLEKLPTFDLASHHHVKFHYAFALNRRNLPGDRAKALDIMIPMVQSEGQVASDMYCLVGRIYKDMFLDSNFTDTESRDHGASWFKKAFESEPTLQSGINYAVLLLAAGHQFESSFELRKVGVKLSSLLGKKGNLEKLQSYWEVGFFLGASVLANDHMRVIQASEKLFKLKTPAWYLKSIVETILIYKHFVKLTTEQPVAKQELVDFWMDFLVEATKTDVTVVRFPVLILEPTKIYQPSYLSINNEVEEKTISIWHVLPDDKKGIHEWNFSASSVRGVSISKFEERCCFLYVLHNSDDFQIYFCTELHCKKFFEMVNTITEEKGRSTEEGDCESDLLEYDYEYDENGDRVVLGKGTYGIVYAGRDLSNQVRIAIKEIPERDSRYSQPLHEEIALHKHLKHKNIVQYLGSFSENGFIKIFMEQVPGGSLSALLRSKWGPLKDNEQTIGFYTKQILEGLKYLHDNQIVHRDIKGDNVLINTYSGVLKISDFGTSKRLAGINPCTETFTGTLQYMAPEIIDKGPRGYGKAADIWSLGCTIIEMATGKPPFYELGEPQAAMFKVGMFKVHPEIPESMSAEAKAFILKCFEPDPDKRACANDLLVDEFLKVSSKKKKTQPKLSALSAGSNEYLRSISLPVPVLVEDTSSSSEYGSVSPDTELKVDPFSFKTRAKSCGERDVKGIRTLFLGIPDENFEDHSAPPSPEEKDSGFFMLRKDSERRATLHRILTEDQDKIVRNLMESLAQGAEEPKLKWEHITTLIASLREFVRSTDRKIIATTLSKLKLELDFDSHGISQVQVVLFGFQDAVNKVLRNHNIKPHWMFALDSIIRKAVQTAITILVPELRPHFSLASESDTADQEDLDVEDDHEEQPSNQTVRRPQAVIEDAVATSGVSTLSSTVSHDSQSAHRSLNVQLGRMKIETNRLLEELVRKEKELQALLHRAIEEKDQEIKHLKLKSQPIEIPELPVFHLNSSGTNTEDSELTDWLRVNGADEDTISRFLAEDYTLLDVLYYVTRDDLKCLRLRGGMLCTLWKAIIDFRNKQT
# [2] = biological target: T2, LZK (MAP3K13) (Homo sapiens, UniProt O43283); test: as above; settings: for remaining binding at 0.05 µM: read-out: Percent control (50 nM); for remaining binding at 0.2 µM: read-out: Percent control (200 nM); for remaining binding at 1 µM: read-out: Percent control (1000 nM); for remaining binding at 10 µM: read-out: Percent control (10 μM)
# T2 construct: purchased KINOMEscan (DiscoveRx), San Diego, CA
# T2 sequence (O43283 1-966): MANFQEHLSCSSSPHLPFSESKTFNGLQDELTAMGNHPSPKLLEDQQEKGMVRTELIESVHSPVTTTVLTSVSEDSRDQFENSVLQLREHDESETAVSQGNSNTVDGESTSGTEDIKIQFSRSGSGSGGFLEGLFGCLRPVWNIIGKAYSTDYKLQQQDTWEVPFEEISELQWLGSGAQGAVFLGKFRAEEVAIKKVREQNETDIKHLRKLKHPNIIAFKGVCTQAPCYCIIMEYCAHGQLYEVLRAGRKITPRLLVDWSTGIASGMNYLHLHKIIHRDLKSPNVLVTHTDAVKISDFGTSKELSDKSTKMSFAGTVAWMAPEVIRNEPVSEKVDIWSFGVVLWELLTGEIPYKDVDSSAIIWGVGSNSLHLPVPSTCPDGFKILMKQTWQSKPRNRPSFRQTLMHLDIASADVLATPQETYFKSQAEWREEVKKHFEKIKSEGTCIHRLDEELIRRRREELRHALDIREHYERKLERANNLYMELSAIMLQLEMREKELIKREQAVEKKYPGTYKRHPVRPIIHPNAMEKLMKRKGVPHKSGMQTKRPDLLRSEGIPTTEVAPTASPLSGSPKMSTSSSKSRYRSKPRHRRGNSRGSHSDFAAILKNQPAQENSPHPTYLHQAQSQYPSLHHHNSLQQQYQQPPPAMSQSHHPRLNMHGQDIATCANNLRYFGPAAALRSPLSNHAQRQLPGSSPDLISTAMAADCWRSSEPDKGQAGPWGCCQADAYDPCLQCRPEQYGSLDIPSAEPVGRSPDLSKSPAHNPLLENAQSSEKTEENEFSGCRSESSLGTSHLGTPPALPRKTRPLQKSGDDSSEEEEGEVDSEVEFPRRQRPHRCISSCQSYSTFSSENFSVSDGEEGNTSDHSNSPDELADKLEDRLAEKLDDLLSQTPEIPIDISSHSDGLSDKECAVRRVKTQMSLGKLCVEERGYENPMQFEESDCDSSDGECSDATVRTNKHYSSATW
# [3] = biological target: T3, MAP3K1 (Homo sapiens, UniProt Q13233); test: as above; settings: for remaining binding at 0.05 µM: read-out: Percent control (50 nM); for remaining binding at 0.2 µM: read-out: Percent control (200 nM); for remaining binding at 1 µM: read-out: Percent control (1000 nM); for remaining binding at 10 µM: read-out: Percent control (10 μM)
# T3 construct: purchased KINOMEscan (DiscoveRx), San Diego, CA
# T3 sequence (Q13233 whole entry): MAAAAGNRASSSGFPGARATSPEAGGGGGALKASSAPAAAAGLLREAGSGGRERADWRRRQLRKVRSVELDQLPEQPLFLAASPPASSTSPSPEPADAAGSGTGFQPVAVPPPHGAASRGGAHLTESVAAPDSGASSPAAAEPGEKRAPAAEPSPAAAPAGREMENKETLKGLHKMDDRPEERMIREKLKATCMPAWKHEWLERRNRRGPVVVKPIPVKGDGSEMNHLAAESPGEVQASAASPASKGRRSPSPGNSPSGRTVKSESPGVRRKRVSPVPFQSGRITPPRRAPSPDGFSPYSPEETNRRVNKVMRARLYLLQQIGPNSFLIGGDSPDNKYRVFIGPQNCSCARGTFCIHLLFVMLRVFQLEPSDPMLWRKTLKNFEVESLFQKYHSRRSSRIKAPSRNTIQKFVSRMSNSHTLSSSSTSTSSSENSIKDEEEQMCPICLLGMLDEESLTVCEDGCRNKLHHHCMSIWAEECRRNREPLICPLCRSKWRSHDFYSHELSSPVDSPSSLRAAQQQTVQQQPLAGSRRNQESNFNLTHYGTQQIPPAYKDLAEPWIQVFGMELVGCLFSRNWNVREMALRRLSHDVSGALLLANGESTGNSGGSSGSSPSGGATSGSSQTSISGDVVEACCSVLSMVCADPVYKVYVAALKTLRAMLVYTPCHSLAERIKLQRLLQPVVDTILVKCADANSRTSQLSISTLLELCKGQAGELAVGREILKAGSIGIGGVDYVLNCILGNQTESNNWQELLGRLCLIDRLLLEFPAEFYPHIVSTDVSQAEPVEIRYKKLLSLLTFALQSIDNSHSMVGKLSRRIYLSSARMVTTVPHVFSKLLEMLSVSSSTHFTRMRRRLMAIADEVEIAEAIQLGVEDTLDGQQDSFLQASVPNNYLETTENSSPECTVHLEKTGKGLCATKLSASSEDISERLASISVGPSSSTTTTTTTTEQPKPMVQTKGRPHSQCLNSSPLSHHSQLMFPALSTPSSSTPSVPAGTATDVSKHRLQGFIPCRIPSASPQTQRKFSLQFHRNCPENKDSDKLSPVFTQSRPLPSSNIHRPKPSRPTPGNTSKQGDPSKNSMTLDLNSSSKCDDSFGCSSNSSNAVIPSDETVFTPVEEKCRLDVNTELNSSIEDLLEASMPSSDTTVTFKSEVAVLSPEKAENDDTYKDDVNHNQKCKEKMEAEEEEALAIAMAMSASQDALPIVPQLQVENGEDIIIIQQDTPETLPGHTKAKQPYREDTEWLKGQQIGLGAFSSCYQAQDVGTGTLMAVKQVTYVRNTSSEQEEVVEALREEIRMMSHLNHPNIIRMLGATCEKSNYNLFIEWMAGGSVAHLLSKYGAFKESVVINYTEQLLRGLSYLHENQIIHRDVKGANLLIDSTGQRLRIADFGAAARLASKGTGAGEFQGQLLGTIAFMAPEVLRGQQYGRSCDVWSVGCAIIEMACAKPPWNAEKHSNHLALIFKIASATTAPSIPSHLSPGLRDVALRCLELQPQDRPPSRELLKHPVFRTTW
# [4] = biological target: T4, MLK1 (MAP3K9) (Homo sapiens, UniProt P80192); test: as above; settings: for IC50: estimated Kd, averaged pointwise estimates, transformed Hill equation, read-out: Calculated estimate of IC50; for remaining binding at 0.05 µM: read-out: Percent control (50 nM); for remaining binding at 0.2 µM: read-out: Percent control (200 nM); for remaining binding at 1 µM: read-out: Percent control (1000 nM); for remaining binding at 10 µM: read-out: Percent control (10 μM)
# T4 construct: purchased KINOMEscan (DiscoveRx), San Diego, CA
# T4 sequence (P80192 whole entry): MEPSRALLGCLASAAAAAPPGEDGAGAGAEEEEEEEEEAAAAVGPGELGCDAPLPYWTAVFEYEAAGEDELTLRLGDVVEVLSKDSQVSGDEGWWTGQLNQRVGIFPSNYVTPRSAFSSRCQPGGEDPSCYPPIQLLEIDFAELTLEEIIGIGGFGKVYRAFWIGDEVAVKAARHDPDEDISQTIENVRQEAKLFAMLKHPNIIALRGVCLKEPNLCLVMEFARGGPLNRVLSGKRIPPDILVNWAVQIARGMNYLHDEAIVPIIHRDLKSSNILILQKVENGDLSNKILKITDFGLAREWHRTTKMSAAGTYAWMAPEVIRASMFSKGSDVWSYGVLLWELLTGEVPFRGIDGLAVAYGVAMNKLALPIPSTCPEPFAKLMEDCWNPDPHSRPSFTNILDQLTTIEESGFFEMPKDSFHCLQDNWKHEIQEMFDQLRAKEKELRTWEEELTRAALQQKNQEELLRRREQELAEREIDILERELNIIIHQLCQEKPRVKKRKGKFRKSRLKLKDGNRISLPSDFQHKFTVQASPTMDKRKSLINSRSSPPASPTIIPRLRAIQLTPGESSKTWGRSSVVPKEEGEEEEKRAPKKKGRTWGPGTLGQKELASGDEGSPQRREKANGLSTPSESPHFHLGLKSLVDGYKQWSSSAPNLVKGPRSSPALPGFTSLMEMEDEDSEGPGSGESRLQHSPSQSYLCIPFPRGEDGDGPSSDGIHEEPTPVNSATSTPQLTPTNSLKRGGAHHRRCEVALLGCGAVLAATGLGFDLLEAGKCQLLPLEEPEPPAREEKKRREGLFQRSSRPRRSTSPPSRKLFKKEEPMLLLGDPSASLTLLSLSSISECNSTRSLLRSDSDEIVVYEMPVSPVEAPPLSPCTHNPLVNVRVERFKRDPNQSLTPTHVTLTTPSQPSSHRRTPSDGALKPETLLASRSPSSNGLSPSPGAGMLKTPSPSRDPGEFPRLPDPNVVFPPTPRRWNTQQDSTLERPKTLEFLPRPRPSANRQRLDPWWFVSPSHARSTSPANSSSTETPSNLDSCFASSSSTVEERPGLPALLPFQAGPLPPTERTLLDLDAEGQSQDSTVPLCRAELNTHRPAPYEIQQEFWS
# [5] = biological target: T5, TAK1 (MAP3K7) (Homo sapiens, UniProt O43318); test: as above; settings: for remaining binding at 0.05 µM: read-out: Percent control (50 nM); for remaining binding at 0.2 µM: read-out: Percent control (200 nM); for remaining binding at 1 µM: read-out: Percent control (1000 nM); for remaining binding at 10 µM: read-out: Percent control (10 μM)
# T5 construct: purchased KINOMEscan (DiscoveRx), San Diego, CA
# T5 sequence (O43318 whole entry): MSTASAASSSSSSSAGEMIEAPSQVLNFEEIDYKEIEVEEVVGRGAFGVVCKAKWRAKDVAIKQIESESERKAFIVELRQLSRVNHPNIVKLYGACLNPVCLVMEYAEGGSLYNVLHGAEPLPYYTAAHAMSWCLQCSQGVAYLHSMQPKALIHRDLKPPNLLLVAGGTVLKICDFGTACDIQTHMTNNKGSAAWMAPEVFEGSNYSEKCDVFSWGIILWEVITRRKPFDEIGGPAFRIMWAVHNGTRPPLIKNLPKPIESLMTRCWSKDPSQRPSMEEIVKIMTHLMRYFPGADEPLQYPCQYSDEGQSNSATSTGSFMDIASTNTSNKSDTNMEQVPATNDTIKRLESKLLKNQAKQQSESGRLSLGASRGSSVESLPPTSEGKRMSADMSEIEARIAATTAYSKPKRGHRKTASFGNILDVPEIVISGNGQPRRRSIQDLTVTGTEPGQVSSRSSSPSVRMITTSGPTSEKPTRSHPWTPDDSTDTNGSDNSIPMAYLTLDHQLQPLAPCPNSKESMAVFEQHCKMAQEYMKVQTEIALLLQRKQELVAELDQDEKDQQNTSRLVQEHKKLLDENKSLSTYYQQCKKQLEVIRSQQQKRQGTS
# [6] = biological target: T6, ZAK (Homo sapiens, UniProt Q9NYL2); test: as above; settings: for remaining binding at 0.05 µM: read-out: Percent control (50 nM); for remaining binding at 0.2 µM: read-out: Percent control (200 nM); for remaining binding at 1 µM: read-out: Percent control (1000 nM); for remaining binding at 10 µM: read-out: Percent control (10 μM)
# T6 construct: purchased KINOMEscan (DiscoveRx), San Diego, CA
# T6 sequence (Q9NYL2 whole entry): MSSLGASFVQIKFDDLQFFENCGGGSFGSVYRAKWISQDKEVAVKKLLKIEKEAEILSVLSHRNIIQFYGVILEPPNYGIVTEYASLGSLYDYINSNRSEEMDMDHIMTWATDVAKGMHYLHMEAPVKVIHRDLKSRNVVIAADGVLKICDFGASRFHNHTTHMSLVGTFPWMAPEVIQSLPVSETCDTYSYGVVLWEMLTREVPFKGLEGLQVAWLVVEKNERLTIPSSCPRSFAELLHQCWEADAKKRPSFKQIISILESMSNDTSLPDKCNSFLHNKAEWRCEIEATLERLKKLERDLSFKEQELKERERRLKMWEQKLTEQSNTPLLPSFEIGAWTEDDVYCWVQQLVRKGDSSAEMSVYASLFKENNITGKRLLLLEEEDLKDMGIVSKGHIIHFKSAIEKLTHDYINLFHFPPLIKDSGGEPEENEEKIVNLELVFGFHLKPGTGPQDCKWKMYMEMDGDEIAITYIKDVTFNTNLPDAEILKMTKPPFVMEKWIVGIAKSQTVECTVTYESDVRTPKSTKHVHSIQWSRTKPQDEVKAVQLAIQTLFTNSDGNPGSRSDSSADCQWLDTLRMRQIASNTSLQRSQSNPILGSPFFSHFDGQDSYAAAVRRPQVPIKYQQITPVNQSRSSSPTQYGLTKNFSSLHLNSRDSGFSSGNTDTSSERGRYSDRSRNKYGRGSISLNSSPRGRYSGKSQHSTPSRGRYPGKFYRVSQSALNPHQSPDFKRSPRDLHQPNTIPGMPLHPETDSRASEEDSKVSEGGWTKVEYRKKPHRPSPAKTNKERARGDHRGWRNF
# [7] = system: phospho-MKK4 and phospho-MKK7; test: Western blot, UV-induced phosphorylation of MKK4 and MKK7; settings: cSCC cell lines, HaCaT, NHEK; 1 μM
SMILES,IC50 [1],remaining binding at 0.05 µM [1],remaining binding at 0.2 µM [1],remaining binding at 1 µM [1],remaining binding at 10 µM [1],remaining binding at 0.05 µM [2],remaining binding at 0.2 µM [2],remaining binding at 1 µM [2],remaining binding at 10 µM [2],remaining binding at 0.05 µM [3],remaining binding at 0.2 µM [3],remaining binding at 1 µM [3],remaining binding at 10 µM [3],IC50 [4],remaining binding at 0.05 µM [4],remaining binding at 0.2 µM [4],remaining binding at 1 µM [4],remaining binding at 10 µM [4],remaining binding at 0.05 µM [5],remaining binding at 0.2 µM [5],further results
CCCS(=O)(=O)Nc1ccc(F)c(C(=O)c2c[nH]c3ncc(-c4ccc(Cl)cc4)cc23)c1F [vemurafenib],12 µM,90%,94%,97%,100%,100%,99%,93%,74%,98%,84%,89%,81%,14 µM,100%,93%,97%,41%,93%,88%,"remaining binding at 1 µM [5]: 86%; remaining binding at 10 µM [5]: 88%; IC50 ([6]; estimated Kd, averaged pointwise estimates, transformed Hill equation, read-out: Calculated estimate of IC50): < 0.05 µM; remaining binding at 0.05 µM [6]: 9%; remaining binding at 0.2 µM [6]: 1.8%; remaining binding at 1 µM [6]: 0.25%; remaining binding at 10 µM [6]: 0.05%; UV-induced phosphorylation of MKK4 and MKK7 [7]: suppressed"
CCCS(=O)(=O)Nc1ccc(F)c(C(=O)c2c[nH]c3ncc(Cl)cc23)c1F [PLX4720],14.2 µM,89%,98%,97%,100%,94%,100%,96%,75%,96%,100%,92%,84%,> 10 µM,100%,100%,100%,100%,90%,88%,remaining binding at 1 µM [5]: 85%; remaining binding at 10 µM [5]: 49%; remaining binding at 0.05 µM [6]: 20%; remaining binding at 0.2 µM [6]: 4%; remaining binding at 1 µM [6]: 0.7%; remaining binding at 10 µM [6]: 0.1%; UV-induced phosphorylation of MKK4 and MKK7 [7]: inhibited
